Our source for the EC50 values is patent publication US20260151391A1, “TREATMENT OF MITOCHONDRIAL DISEASES WITH sGC STIMULATORS” (Tisento Therapeutics Inc., priority 2022, published 2026).

One assay relates to sGC enzyme. The assay can be described thus: cGMP GloSensor cell-based assay, 384-well format. The settings on record: HEK293 GloSensor 40F cGMP cells, 10 μM DETA-NONOate; geometrical mean; I-20 and I-14: average of free acid and sodium salt; read-out: Glo EC50. The arrangement: species or system human. The source says: Human embryonic kidney cells (HEK293) cells expressing GloSensor™ 40F cGMP (Part No: CS182801, Promega) were used to evaluate the activity of test compounds. The luminescent biosensors (engineered luciferase) that were incorporated into these cells detect cGMP formed by the compounds stimulating the sGC enzyme and emit luminescence.
cGMP GloSensor cells were maintained in Dulbecco's Modification of Eagle's Medium (DMEM) supplemented with fetal bovine serum (FBS, 10% final) and hygromycine (200 ug/ml). The day before assay, cells were plated in DMEM with 10% FBS in a 50 μL volume at a density of 1.5×10^4 cells/well in a poly-D-lysine coated 384-well flat white-bottom plate (Corning Cat No 35661). […] Test compounds and Diethylenetriamine NONOate (DETA-NONOate) was diluted to 3 mM (20×) in serum-free CO2 independent medium and serially diluted at 4× dilutions to create 5× dose curve from which 10 ul was added to the wells (x μM concentration for test compound solution and 10 μM concentration for DETA-NONOate solution; wherein x is one of the following final concentrations: 30 μM, 7.5 μM, 1.9 μM, 469 nM, 117 nM, 29.3 nM, 7.3 nM, 1.83 nM, 0.46 nM, 0.11 nM, 0.03 nM) For the kinetics studies, luminescense was measured right away for 0.2 sec per well with Envision (Perkin Elmer). […]
(§1) Concentration response data were analyzed using a 4-parameter fit (log (agonist) vs. response-variable slope). […]

The test system of the next assay is sGC. Nature of the assay: cGMP neuronal cell-based assay (rat primary neurons). The settings on record: rat primary hippocampal neurons, DETA-NO 10 μM or 30 μM, cGMP by LC-MS/MS; I-20 and I-14: average of free acid and sodium salt; read-out: sGC Neuron EC50. Here is the method:
Rat primary neurons were isolated from fetuses of 18-day pregnant Sprague-Dawley females. The fetuses were collected in Hanks' balanced salt solution (HBSS) and brains were rapidly removed. The cerebral hippocampi were isolated and mechanically fragmented. Further tissue digestion was performed with 0.25% (wt/vol) trypsin solution in HBSS without Ca2+ and Mg2+ for 15 min at 37° C. After trypsination, cells were washed and resuspended in neurobasal medium supplemented with 0.5 mM L-glutamine, 12.5 uM glutamic acid, 2% B-27 and 100 U/mL penicillin, and 100 μg/mL streptomycin. Cells were plated at a density of 26×10^3 or 3×10^4 or 4×10^4 cells/well in a poly-D-lysine coated 384-well flat clear-bottom plate (Corning Cat No 354662). Cells were incubated 6-7 days at 37° C. in a humidified chamber with 5% CO2. Media was removed and cells were washed 1× with HBSS containing Ca2+ and Mg2+, and replaced with 40 uL HBSS containing 0.5 mM IBMX, and incubated for 15 minutes at 37° C. […] Following centrifugation at 4° C. for 5 minutes at 1000×g to pellet cell debris, the supernatant was aspirated to a clean plate and the samples were analyzed for cGMP content. cGMP concentrations were determined from each sample using LC-MS/MS.
as §1

On to `Cc1cc(F)c(Cc2nc(-c3ncc(F)c(O)n3)cn3ccnc23)cc1F` [Compound I-14, 5-fluoro-2-(8-(2,5-difluoro-4-methylbenzyl)imidazo[1,2-a]pyrazin-6-yl)pyrimidin-4-ol], for which the half-maximal effective concentration (EC50) in the assay on sGC enzyme and with sGC was ≤ 100 nM throughout.

Usually EC50 stands for the concentration that produces a half-maximal response.
